Results reported in ChEMBL document CHEMBL1201862, “PubChem BioAssay data set” (2004).
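48-hour exposure; five concentrations; linearly interpolated endpoints. The concentration for 50% growth inhibition is given as GI50.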 Active and inactive are the calls of the source. Cut-off read from the data, not from the text of the source: active = GI50 up to about 1.1 µM and inactive = higher.

Legend:
Experiment in all cases: NCI-60 cell line screen, 48 h
UO-31 = system: UO-31
786-0 = system: 786-0
MDA-MB-231 = system: MDA-MB-231
CCRF-CEM = system: CCRF-CEM
SK-OV-3 = system: SK-OV-3
M14 = system: M14
HL-60 = system: HL-60
UACC-62 = system: UACC-62
NCI-H522 = system: NCI-H522
DU-145 = system: DU-145
COLO 205 = system: COLO 205
TK-10 = system: TK-10
U-251 = system: U-251
HOP-62 = system: HOP-62
UACC-257 = system: UACC-257
ACHN = system: ACHN
LOX IMVI = system: LOX IMVI
SK-MEL-2 = system: SK-MEL-2
NCI/ADR-RES = system: NCI/ADR-RES

Measured: GI50

CC(C)=NNc1snnc1C(N)=O
inactive: UO-31 > 100 µM | 786-0 > 100 µM | MDA-MB-231 > 100 µM | CCRF-CEM > 100 µM | SK-OV-3 > 100 µM | M14 > 100 µM | HL-60 > 100 µM | UACC-62 > 100 µM | NCI-H522 > 100 µM | DU-145 > 100 µM | COLO 205 > 100 µM | TK-10 > 100 µM | U-251 > 100 µM | HOP-62 > 100 µM | UACC-257 > 100 µM | ACHN > 100 µM | LOX IMVI > 100 µM | SK-MEL-2 > 100 µM | NCI/ADR-RES > 100 µM

CCc1n[nH]c(=O)n1/N=C/c1ccc(/C=N/n2c(CC)n[nH]c2=O)cc1
inactive: UO-31 > 100 µM | 786-0 > 100 µM | MDA-MB-231 > 100 µM | CCRF-CEM > 100 µM | M14 > 100 µM | HL-60 > 100 µM | UACC-62 > 100 µM | NCI-H522 > 100 µM | DU-145 > 100 µM | COLO 205 > 100 µM | TK-10 > 100 µM | U-251 > 100 µM | HOP-62 > 100 µM | UACC-257 > 100 µM | ACHN > 100 µM | LOX IMVI > 100 µM | SK-MEL-2 > 100 µM | NCI/ADR-RES > 100 µM

C=CC[C@]1(/C=N/O)CN(S(=O)(=O)CC[Si](C)(C)C)C[C@H]2CC=CC[C@H]21
inactive: UO-31 26.3 µM | 786-0 18.5 µM | MDA-MB-231 24.4 µM | CCRF-CEM 14 µM | SK-OV-3 24.2 µM | M14 20.2 µM | UACC-62 16.6 µM | NCI-H522 15.8 µM | DU-145 20.6 µM | COLO 205 17.3 µM | TK-10 19.5 µM | U-251 17.7 µM | HOP-62 20 µM | UACC-257 21.2 µM | ACHN > 10 µM | LOX IMVI 19.7 µM | SK-MEL-2 15 µM | NCI/ADR-RES 39.8 µM

CC1=C[C@H](O)[C@@]2(C)[C@@H]([C@@H]1C)[C@H]1CC[C@@H]3[C@@]4(C)CC[C@H](O)C(C)(C)[C@@H]4CC[C@@]3(C)[C@]1(C)C[C@@H]2O
inactive: UO-31 18.6 µM | 786-0 14 µM | MDA-MB-231 20.3 µM | CCRF-CEM 16.9 µM | SK-OV-3 18.4 µM | M14 17.1 µM | UACC-62 18.8 µM | NCI-H522 17.9 µM | DU-145 16.4 µM | COLO 205 16.6 µM | TK-10 22.2 µM | U-251 20 µM | HOP-62 17.3 µM | UACC-257 20.1 µM | LOX IMVI 21.5 µM | SK-MEL-2 23.3 µM | NCI/ADR-RES 19.8 µM

COc1ccc(-c2c(C(C)=O)c(-c3ccccc3)n(C3OC(CO)C(O)C(O)C3O)c(=S)c2C#N)cc1 (stereo not given)
inactive: UO-31 4 µM | 786-0 > 100 µM | MDA-MB-231 > 100 µM | CCRF-CEM > 100 µM | SK-OV-3 > 100 µM | M14 > 100 µM | HL-60 > 100 µM | UACC-62 43.6 µM | NCI-H522 > 100 µM | DU-145 > 100 µM | COLO 205 > 100 µM | TK-10 > 100 µM | U-251 > 100 µM | HOP-62 > 100 µM | UACC-257 > 100 µM | ACHN > 100 µM | LOX IMVI > 100 µM | NCI/ADR-RES > 100 µM

CCOC(=O)c1cc(I)c(-c2cc(C)no2)n1C
inactive: UO-31 37.9 µM | 786-0 43.5 µM | MDA-MB-231 36 µM | CCRF-CEM 27.9 µM | SK-OV-3 > 100 µM | M14 94 µM | HL-60 26.1 µM | UACC-62 59 µM | NCI-H522 33.4 µM | DU-145 89.9 µM | COLO 205 42.4 µM | TK-10 > 100 µM | U-251 60.5 µM | UACC-257 71.6 µM | ACHN 48.3 µM | LOX IMVI 37.3 µM | SK-MEL-2 > 100 µM | NCI/ADR-RES 36.2 µM

O=C(NCCCN(CCCCN(CCCNC(=O)C(F)(F)F)Cc1ccccc1)Cc1ccccc1)C(F)(F)F
inactive: UO-31 4.63 µM | 786-0 12.6 µM | MDA-MB-231 17.5 µM | CCRF-CEM 16.2 µM | SK-OV-3 20.1 µM | M14 3.49 µM | HL-60 12.9 µM | UACC-62 16.9 µM | NCI-H522 9.51 µM | DU-145 19.7 µM | COLO 205 10.7 µM | TK-10 23.3 µM | U-251 > 10 µM | UACC-257 5.07 µM | ACHN 16.5 µM | LOX IMVI 8.43 µM | NCI/ADR-RES 14.7 µM

CCCCCCCCCCCCCCCCCCNC(=O)C(N)Cc1ccc(OCc2ccccc2)cn1 (stereo not given)
inactive: UO-31 17.3 µM | 786-0 24.5 µM | MDA-MB-231 20.9 µM | CCRF-CEM 13.5 µM | SK-OV-3 22.7 µM | M14 17.9 µM | HL-60 15.7 µM | UACC-62 16.7 µM | NCI-H522 18.7 µM | DU-145 21.3 µM | COLO 205 15.4 µM | TK-10 15.4 µM | U-251 18.5 µM | HOP-62 19 µM | UACC-257 19.1 µM | ACHN 24.1 µM | LOX IMVI 17.4 µM | SK-MEL-2 17.1 µM | NCI/ADR-RES 20 µM

CCc1ccccc1NC(=O)C(=O)CC(=O)c1sc(Nc2ccccc2Cl)nc1C
inactive: UO-31 32.7 µM | 786-0 27.7 µM | MDA-MB-231 27 µM | CCRF-CEM 18 µM | SK-OV-3 24.2 µM | M14 27.7 µM | HL-60 47 µM | UACC-62 > 100 µM | NCI-H522 18.1 µM | DU-145 55.1 µM | COLO 205 22.2 µM | TK-10 59.6 µM | U-251 32.5 µM | HOP-62 31.6 µM | UACC-257 43.8 µM | ACHN 30.5 µM | LOX IMVI 19.7 µM | SK-MEL-2 24.4 µM | NCI/ADR-RES 25.8 µM

c1ccc2c3nnc(c2c1)SCCSCCCSCCS3
inactive: UO-31 44.3 µM | 786-0 29.1 µM | MDA-MB-231 22.1 µM | CCRF-CEM > 100 µM | SK-OV-3 27.8 µM | M14 > 100 µM | HL-60 > 100 µM | UACC-62 57.5 µM | NCI-H522 50.9 µM | DU-145 > 100 µM | COLO 205 > 100 µM | TK-10 48 µM | U-251 36.1 µM | HOP-62 29.4 µM | UACC-257 > 100 µM | ACHN 61.1 µM | LOX IMVI > 100 µM | SK-MEL-2 58.7 µM | NCI/ADR-RES 75.3 µM

COc1cc([C@@H]2c3cc4c(cc3[C@H](OC3OC5COC(c6ccco6)OC5C(O)C3O)C3COC(=O)[C@@H]32)OCO4)cc(OC)c1OC (stereo not given in full)
inactive: UO-31 25.9 µM | 786-0 3.3 µM | MDA-MB-231 4.43 µM | SK-OV-3 > 19.9 µM | M14 4.44 µM | HL-60 4.05 µM | UACC-62 4.73 µM | NCI-H522 8.34 µM | DU-145 3.15 µM | COLO 205 4.06 µM | TK-10 > 100 µM | U-251 3.18 µM | HOP-62 7.89 µM | UACC-257 5.24 µM | ACHN 4.6 µM | LOX IMVI 4.06 µM | SK-MEL-2 9.31 µM | NCI/ADR-RES 9.93 µM
